# Patent publication US9958439B2, “Carbohydrate detection” (RICHTER LIFE SCIENCE DEVELOPMENT AB, priority 2012, dated 2018)
# Where two headings read alike, the source gives them in different places.
# How the values were obtained:
# [1] = Description: (§1) 3 μM of each probe was applied to serial two fold dilutions of the carbohydrate of which the concentration shown here are 5 mg/ml (_.), 2.5 mg/ml (. . . ) 1.25 mg/ml (__) and 0 mg/ml (_). The excitation spectrum of the probe was analyzed for wavelengths 300-500 nm with emission read at 545 nm.
# 3 μM of each probe was applied to serial two fold dilutions of the carbohydrate. Respective probes were excited at wavelengths unique to each probe (specified in figure), and emission was read at 545 nm. […] The mean increase in signal (_) with [Glucose] and the fitted regression line (__) is shown.
# (§2) Serial dilutions of carbohydrate suspensions were prepared in dH2O. Concentrations ranging from 10 to 0.039 mg/ml was used for β-1,3-glucan, cellulose and chitin, whereas 5 to 0.019 mg/ml was used for sodium alginate, glucose, amylose, glycogen, cellulobiose, heparin, chondroitin sulfate A. 3 μM of each LCO probe was added to 1 ml aliquots of each concentration of carbohydrate, after which 100 μl was dispensed in triplicates into 96 well plates. Excitation spectra were collected by exciting the sample from 300 to 500 nm and detecting emission at 545 nm. Detection of carbohydrate is concluded when there is a reproducible change in λmax and/or RFU intensity with reference to the negative control. Data from three concentrations, as well as the negative control are shown for each carbohydrate as specified in respective figure.
# (§3) The excitation wavelength (emission detected at 545 nm) selected for each LCO is either (1) the λmax, or (2) the excitation wavelength which suffers the lowest background. A linear regression analysis is performed to determine the relationship between the carbohydrate concentration and RFU.
# [2] = for RFU change (Correlation analysis) / RFU change (Signal deviation with increasing [Carbohydrate]) / λmax change: 3 μM probe; for RFU change (Correlation analysis): probe-specific excitation λ, emission 545 nm; for RFU change (Signal deviation with increasing [Carbohydrate]) / λmax change: spectral analysis, Excitation 300-500, Emission 545; for carbohydrate can be detected and/or differentiated by the LCO: conclusion from change in signal magnitude and/or shift in λmax; for Gradient Parameters (gradient of regression line) / Linear relationship / Quality of Gradient: linear regression
# Description: (§4) The excitation spectrum of the probe was analyzed for wavelengths 300-500 nm with emission read at 545 nm.
# (§5) 3 μM of each probe was applied to serial two fold dilutions of the insoluble carbohydrate. Respective probes were excited at wavelengths unique to each probe (specified in figure), and emission was read at 545 nm.
# as §2, §3
# [3] = remark: listed apart in the source
# Description: as §1, with “of the insoluble carbohydrate of” for “of the carbohydrate of”, “. . ), 1.25 mg/ml” for “. . ) 1.25 mg/ml”
# as §5, §2, §3
# [4] = for RFU change (Correlation analysis): probe-specific excitation λ, emission 545 nm
# Description: as §1
# (§6) 3 μM of each probe was applied to serial two fold dilutions of the carbohydrate. Respective probes were excited at wavelengths unique to each probe (specified in figure), and emission was read at 545 nm.
# as §2, §3
# [5] = remark: listed apart in the source
# Description: as §4, §6, §2, §3
# [6] = for RFU change (Correlation analysis): probe-specific excitation λ, emission 545 nm; for Gradient Parameters (gradient of regression line) / Linear relationship / Quality of Gradient: linear regression
# Description: 3 μM of each probe was applied to serial two fold dilutions of the carbohydrate of which the concentration shown here are 5 mg/ml (_.), 2.5 mg/ml (. . . ), 1.25 mg/ml (__) and 0 mg/ml (_). The excitation spectrum of the probe was analyzed for wavelengths 300-500 nm with emission read at 545 nm.
# as §6, §2, §3
# [7] = glucose concentration vs RFU, linear regression
# [8] = β-1,3-glucan concentration vs RFU
# [9] = sodium alginate concentration vs RFU, linear regression
# [10] = Cellulobiose 5-0.019 mg/ml, 3 μM probe, spectral analysis, Excitation 300-500, Emission 545
# [11] = amylose concentration vs RFU, linear regression
# [12] = cellulobiose concentration vs RFU, linear regression
# [13] = Chondroitin Sulfate A 5-0.019 mg/ml, 3 μM probe, spectral analysis, Excitation 300-500, Emission 545
# [14] = Chondroitin Sulfate A concentration vs RFU, linear regression
# [15] = Glycogen 5-0.019 mg/ml, 3 μM probe, spectral analysis, Excitation 300-500, Emission 545
structure (smiles),measurement,setting,value
"Cl.Cl.O=C(Cc1cc(-c2cccs2)sc1-c1ccc(-c2sc(-c3cccs3)cc2CC(=O)NCCc2c[nH]cn2)s1)NCCc1c[nH]cn1 [pHTA-His, penta Hydrogen Thiophene Acetic acid Histidine]",RFU change (Correlation analysis),"[1]; Glucose 5-0.019 mg/ml, 3 μM probe, probe-specific excitation λ, emission 545 nm",Unclear
same,RFU change (Signal deviation with increasing [Carbohydrate]),"[1]; Glucose 5-0.019 mg/ml, 3 μM probe, spectral analysis, Excitation 300-500, Emission 545",Increases
same,Gradient Parameters (gradient of regression line),[1]; [7],33.2 ± 25.2
same,Quality of Gradient,[1]; [7],Horizontal
same,Sensitivity,[1]; to glucose,No
same,RFU change (Correlation analysis),[2]; Cellulose 10-[…],Increase
same,RFU change (Signal deviation with increasing [Carbohydrate]),[2]; Cellulose 10-[…],Increase
same,λmax change,[2]; Cellulose 10-[…],Redshift
same,carbohydrate can be detected and/or differentiated by the LCO,[2]; Cellulose,can be detected and/or differentiated
same,RFU change (Correlation analysis),[2]; Chitin 10-[…],Increases
same,RFU change (Signal deviation with increasing [Carbohydrate]),[2]; Chitin 10-[…],Increases
same,λmax change,[2]; Chitin 10-[…],Redshift
same,carbohydrate can be detected and/or differentiated by the LCO,[2]; Chitin,can be detected and/or differentiated
same,Gradient Parameters (gradient of regression line),[2]; cellulose concentration vs RFU,725.9 ± 124.6
same,Linear relationship,[2]; cellulose concentration vs RFU,Significant
same,Quality of Gradient,[2]; cellulose concentration vs RFU,Positive
same,Gradient Parameters (gradient of regression line),[2]; chitin concentration vs RFU,117.2 ± 25.7
same,Linear relationship,[2]; chitin concentration vs RFU,Significant
same,Quality of Gradient,[2]; chitin concentration vs RFU,Positive
same,Sensitivity,[2]; to cellulose,Yes
same,Sensitivity,[2]; to chitin,Yes
same,Sensitivity,"[2]; to β-1,3-glucan",No
same,RFU change (Correlation analysis),"[2]; β-1,3-glucan 10-[…]",Unclear
same,RFU change (Signal deviation with increasing [Carbohydrate]),"[2]; β-1,3-glucan 10-[…]",Unclear
same,Gradient Parameters (gradient of regression line),[2]; [8],−7.071 ± 34
same,Quality of Gradient,[2]; [8],Horizontal
same,RFU change (Correlation analysis),"[3]; Sodium alginate 5-0.019 mg/ml, 3 μM probe, probe-specific excitation λ, emission 545 nm",Increases
same,RFU change (Signal deviation with increasing [Carbohydrate]),"[3]; Sodium alginate 5-0.019 mg/ml, 3 μM probe, spectral analysis, Excitation 300-500, Emission 545",Increases
same,carbohydrate can be detected and/or differentiated by the LCO,"[3]; Sodium alginate, conclusion from change in signal magnitude and/or shift in λmax",can be detected and/or differentiated
same,Gradient Parameters (gradient of regression line),[3]; [9],199.9 ± 36.3
same,Linear relationship,[3]; [9],Significant
same,Quality of Gradient,[3]; [9],Positive
same,Sensitivity,[3]; to sodium alginate,Yes
same,RFU change (Correlation analysis),"[4]; Amylose 5-0.019 mg/ml, 3 μM probe",Decreases
same,RFU change (Signal deviation with increasing [Carbohydrate]),"[4]; Amylose 5-0.019 mg/ml, 3 μM probe, spectral analysis, Excitation 300-500, Emission 545",Decreases
same,carbohydrate can be detected and/or differentiated by the LCO,"[4]; Amylose, conclusion from change in signal magnitude and/or shift in λmax",can be detected and/or differentiated
same,RFU change (Correlation analysis),"[4]; Cellulobiose 5-0.019 mg/ml, 3 μM probe",Unclear
same,RFU change (Signal deviation with increasing [Carbohydrate]),[4]; [10],Unclear
same,λmax change,[4]; [10],No change
same,Gradient Parameters (gradient of regression line),[4]; [11],−341.5 ± 47.3
same,Linear relationship,[4]; [11],Significant
same,Quality of Gradient,[4]; [11],Negative
same,Gradient Parameters (gradient of regression line),[4]; [12],−5.26 ± 4.87
same,Quality of Gradient,[4]; [12],Horizontal
same,Sensitivity,[4]; to amylose,Yes
same,Sensitivity,[4]; to cellulobiose,No
same,RFU change (Correlation analysis),"[5]; Chondroitin Sulfate A 5-0.019 mg/ml, 3 μM probe, probe-specific excitation λ, emission 545 nm",Increases
same,RFU change (Signal deviation with increasing [Carbohydrate]),[5]; [13],Increases
same,λmax change,[5]; [13],Blueshift
same,Gradient Parameters (gradient of regression line),[5]; [14],163.8 ± 20.77
same,Linear relationship,[5]; [14],Significant
same,Quality of Gradient,[5]; [14],Positive
same,carbohydrate can be detected and/or differentiated by the LCO,"[5]; Chondroitin sulfate A, conclusion from change in signal magnitude and/or shift in λmax",can be detected and/or differentiated
same,Sensitivity,[5]; to Chondroitin Sulfate A,Yes
same,RFU change (Correlation analysis),"[6]; Glycogen 5-0.019 mg/ml, 3 μM probe",Increases
same,RFU change (Signal deviation with increasing [Carbohydrate]),[6]; [15],Increases
same,λmax change,[6]; [15],Redshift
same,carbohydrate can be detected and/or differentiated by the LCO,"[6]; Glycogen, conclusion from change in signal magnitude and/or shift in λmax",can be detected and/or differentiated
same,RFU change (Correlation analysis),"[6]; Heparin 5-0.019 mg/ml, 3 μM probe",Unclear
same,RFU change (Signal deviation with increasing [Carbohydrate]),"[6]; Heparin 5-0.019 mg/ml, 3 μM probe, spectral analysis, Excitation 300-500, Emission 545",Decreases
same,Gradient Parameters (gradient of regression line),[6]; glycogen concentration vs RFU,130.6 ± 55.6
same,Linear relationship,[6]; glycogen concentration vs RFU,Significant
same,Quality of Gradient,[6]; glycogen concentration vs RFU,Positive
same,Gradient Parameters (gradient of regression line),[6]; heparin concentration vs RFU,26.3 ± 18.5
same,Linear relationship,[6]; heparin concentration vs RFU,Not Significant
same,Quality of Gradient,[6]; heparin concentration vs RFU,Horizontal
same,Sensitivity,[6]; to glycogen,Yes
same,Sensitivity,[6]; to heparin,No
